Data: patent publication EP0350163A2, “Renin inhibitory peptides” (BEECHAM GROUP PLC, priority 1988, dated 1990)
Where a name gives a salt, the structure may show the parent alone.

Target: T1, human renin (Homo sapiens, UniProt P00797)
T1 construct: from tissue; host or cells: human plasma from the blood of healthy volunteers
T1 sequence (P00797 67-406): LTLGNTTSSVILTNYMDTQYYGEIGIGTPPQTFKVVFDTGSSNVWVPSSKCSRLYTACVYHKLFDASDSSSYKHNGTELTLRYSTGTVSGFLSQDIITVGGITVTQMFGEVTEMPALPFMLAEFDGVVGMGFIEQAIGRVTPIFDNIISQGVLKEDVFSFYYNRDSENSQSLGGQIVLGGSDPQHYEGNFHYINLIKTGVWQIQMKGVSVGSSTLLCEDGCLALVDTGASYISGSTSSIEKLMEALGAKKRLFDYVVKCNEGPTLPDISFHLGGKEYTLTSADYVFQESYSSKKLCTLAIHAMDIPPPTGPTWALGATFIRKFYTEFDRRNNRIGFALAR
Test: In vitro human renin inhibition (renin activity in human plasma, angiotensin I radioimmunoassay)
Type: biochemical
Conditions: human plasma from healthy volunteers; angiotensin I difference between 37° and 4° for 2 h; linear regression of at least three concentrations; read-out: IC₅₀
Procedure: Renin inhibitory activity was estimated as the percentage change in renin activity in human plasma in the presence and absence of compound. The source of plasma was blood taken from healthy volunteers. Renin activity was defined by the difference in angiotensin I levels between two halves of a sample, one incubated at 37^o and the other at 4^o for 2 h. Angiotensin I levels were measured using a ¹²⁵I- angiotensin I radioimmunoassay kit (NEN/DuPont, Stevenage). Results were calculated as the mean of at least two, duplicate determinations and IC₅₀ values were calculated by linear regression analysis of at least three concentrations of compound.

| SMILES | IC50 [nM] |
| --- | --- |
| CC(C)CNC(=O)C[C@H](O)[C@H](CC1CCCCC1)NC(=O)[C@H](CC(C)C)NC(=O)[C@H](Cc1ccccc1)NC(=O)CC1COc2ccc([N+](=O)[O-])cc21 (stereo partly drawn) [E 5, 4-(S)-((5-Nitro-2,3-dihydrobenzofuran-3-yl)acetyl-(S)-phenylalanyl-(S)-leucyl)amino-5-cyclohexyl-3-(S)-hydroxypentanoic acid isobutylamide hemihydrate] | 60 |
| CC(C)CNC(=O)C[C@H](O)[C@H](CC1CCCCC1)NC(=O)[C@H](CC(C)C)NC(=O)[C@H](Cc1ccccc1)NC(=O)CC1COc2ccc(N)cc21 (stereo partly drawn) [E 6, 4-(S)-((5-Amino-2,3-dihydrobenzofuran-3-yl)acetyl-(S)-phenylalanyl-(S)-leucyl)amino-5-cyclohexyl-3-(S)-hydroxypentanoic acid isobutylamide trifluoroacetate hemihydrate] | 30 |
| CC(C)CNC(=O)C[C@H](O)[C@H](CC1CCCCC1)NC(=O)[C@H](Cc1cnc[nH]1)NC(=O)[C@H](Cc1ccccc1)NC(=O)CC1CS(=O)(=O)c2cc(CN)ccc21 (stereo partly drawn) [Example E60, 4-(S)-((6-Aminomethyl-2,3-dihydro-1,1-dioxobenzothiophene-3-yl)acetyl-(S)-phenylalanyl-(S)-histidyl)amino-5-cyclohexyl-3-(S)-hydroxypentanoic acid isobutylamide bis(trifluoroacetate) sesquihydrate] | 40 |
| CC(C)CNC(=O)C[C@H](O)[C@H](CC1CCCCC1)NC(=O)[C@H](Cc1cnc[nH]1)NC(=O)[C@H](Cc1ccccc1)NC(=O)CC1COc2ccc(C(=O)OCc3ccccc3)cc21 (stereo partly drawn) [Example E23, 4-(S)-((5-Benzyloxycarbonyl)-2,3-dihydrobenzofuran-3-yl)acetyl-(S)-phenylalanyl-(S)-histidyl)amino-5-cyclohexyl-3-(S)-hydroxypentanoic acid isobutylamide hemihydrate] | 470 |
| CC(C)CNC(=O)C[C@H](O)[C@H](CC1CCCCC1)NC(=O)[C@H](CC(C)C)NC(=O)[C@H](Cc1ccccc1)NC(=O)CC1COc2ccc(CNCC(=O)O)cc21 (stereo partly drawn) [Example E36a, 4-(S)-((5-(Carboxymethylaminomethyl)-2,3-dihydrobenzofuran-3-yl)acetyl-(S)-phenylalanyl-(S)-leucyl)amino-5-cyclohexyl-3-(S)-hydroxvoentanoic acid isobutylamide] | 100 |
| CC(C)CNC(=O)C[C@H](O)[C@H](CC1CCCCC1)NC(=O)[C@H](CC(C)C)NC(=O)[C@H](Cc1ccccc1)NC(=O)CC1COc2ccc(S(=O)(=O)CC(=O)OC(C)(C)C)cc21 (stereo partly drawn) [Example E43, 4-(S)-((5-(tert-Butoxycarbonylmethanesulphonyl)-2,3-dihydrobenzofuran-3-yl)acetyl)-(S)-phenylalanyl-(S)-leucyl)amino-5-cyclohexyl-3-(S)-hydroxypentanoic acid isobutylamide hemihydrate] | 8 |
| COc1cccc2c1OCC2CC(=O)N[C@@H](Cc1ccccc1)C(=O)N[C@@H](CC(C)C)C(=O)N[C@@H](CC1CCCCC1)[C@@H](O)CC(=O)NCC(C)C (stereo partly drawn) [E 3, 4-(S)-((7-Methoxy-2,3-dihydrobenzofuran-3-yl)acetyl-(S)-phenylalanyl-(S)-leucyl)amino-5-cyclohexyl-3-(S)-hydroxypentanoic acid isobutylamide hemihydrate] | 50 |

More lines, in order of falling IC50, values ahead:

| IC50 [nM] | SMILES |
| --- | --- |
| 60 | CC(C)CNC(=O)C[C@H](O)[C@H](CC1CCCCC1)NC(=O)[C@H](CC(C)C)NC(=O)[C@H](Cc1ccccc1)NC(=O)CC1COc2ccc(S(=O)(=O)CC(=O)O)cc21 (stereo partly drawn) [Example E56, 4-(S)-((5-(Carboxymethanesulphonyl)-2,3-dihydrobenzofuran-3-yl)acetyl-(S)-phenylalanyl-(S)-leucyl)amino-5-cyclohexyl-3-(S)-hydroxypentanoic acid isobutylamide, sodium salt] |
| 50 | CC(C)CNC(=O)C[C@H](O)[C@H](CC1CCCCC1)NC(=O)[C@H](CC(C)C)NC(=O)[C@H](Cc1ccccc1)NC(=O)CC1COc2ccc(NC(N)=O)cc21 (stereo partly drawn) [E 7, 4-(S)-((5-Ureido-2,3-dihydrobenzofuran-3-yl)acetyl-(S)-phenylalanyl-(S)-leucyl)amino-5-cyclohexyl-3-(S)-hydroxypentanoic acid isobutylamide dihydrate] |
| 50 | CNS(=O)(=O)c1ccc2c(c1)C(CC(=O)N[C@@H](Cc1ccccc1)C(=O)N[C@@H](CC(C)C)C(=O)N[C@@H](CC1CCCCC1)[C@@H](O)CC(=O)NCC(C)C)CO2 (stereo partly drawn) [E 9, 4 (S)-((5-(Methylaminosulphonyl)-2,3-dihydrobenzofuran-3-yl)acetyl-(S)-phenylalanyl-(S)-leucyl)amino-5-cyclohexyl-3-(S)-hydroxypentanoic acid isobutylamide] |
| 40 | CC(C)CNC(=O)C[C@H](O)[C@H](CC1CCCCC1)NC(=O)[C@H](Cc1c[nH]cn1)NC(=O)[C@H](Cc1ccccc1)NC(=O)CC1COc2ccc([N+](=O)[O-])cc21 (stereo partly drawn) [Example E39, 4-(S)-((5-Nitro-2,3-dihydrobenzofuran-3-yl)acetyl-(S)-phenylalanyl-(S)-histidyl)amino-5-cyclohexyl-3-(S)-hydroxypentanoic acid isobutylamide hydrate] |
| 30 | CC(C)CNC(=O)C[C@H](O)[C@H](CC1CCCCC1)NC(=O)[C@H](CC(C)C)NC(=O)[C@H](Cc1ccccc1)NC(=O)CC1COc2ccc(CN)cc21 (stereo partly drawn) [Example E20a, 4-(S)-((5-(Aminomethyl)-2,3-dihydrobenzofuran-3-yl)acetyl-(S)-phenylalanyl-(S)-leucyl)amino-5-cyclohexyl-3-(S)-hydroxypentanoic acid isobutylamide hemi(trichloromethanate)] |
| 10 | CC(C)CNC(=O)C[C@H](O)[C@H](CC1CCCCC1)NC(=O)[C@H](CC(C)C)NC(=O)[C@H](Cc1ccccc1)NC(=O)CC1CS(=O)(=O)c2ccc(CN)cc21 (stereo partly drawn) [Example E50, 4-(S)-((5-Aminomethyl-2,3-dihydro-1,1-dioxobenzothiophene-3-yl)acetyl-(S)-phenylalanyl-(S)-leucyl)amino-5-cyclohexyl-3-(S)-hydroxypentanoic acid isobutylamide] |
| 10 | CC(C)CNC(=O)C[C@H](O)[C@H](CC1CCCCC1)NC(=O)[C@H](CC(C)C)NC(=O)[C@H](Cc1ccccc1)NC(=O)CC1CS(=O)(=O)c2cc(N)ccc21 (stereo partly drawn) [Example E29, 4-(S)-((6-Amino-2,3-dihydro-1,1-dioxobenzothiophene-3-yl)acetyl-(S)-phenylalanyl-(S)-leucyl)amino-5-cyclohexyl-3-(S)-hydroxypentanoic acid isobutylamide dihydrate] |
| 10 | CC(C)CNC(=O)C[C@H](O)[C@H](CC1CCCCC1)NC(=O)[C@H](CC(C)C)NC(=O)[C@H](Cc1ccccc1)NC(=O)CC1CS(=O)(=O)c2ccccc21 (stereo partly drawn) [Example E12, 4-(S)-((2,3-Dihydro-1,1-dioxobenzothiophene-3-yl)acetyl-(S)-phenylalanyl-(S)-leucyl)amino-5-cyclohexyl-3-(S)-hydroxypentanoic acid isobutylamide] |
| 9 | CC(C)CNC(=O)C[C@H](O)[C@H](CC1CCCCC1)NC(=O)[C@H](CC(C)C)NC(=O)[C@H](Cc1ccccc1)NC(=O)CC1CS(=O)(=O)c2ccc(C#N)cc21 (stereo partly drawn) [Example E45, 4-(S)-((5-Cyano-2,3-dihydro-1,1-dioxobenzothiophene-3-yl)acetyl-(S)-phenylalanyl-(S)-leucyl)amino-5-cyclohexyl-3-(S)-hydroxypentanoic acid isobutylamide] |
| 8 | CC(C)CNC(=O)C[C@H](O)[C@H](CC1CCCCC1)NC(=O)[C@H](CC(C)C)NC(=O)[C@H](Cc1ccccc1)NC(=O)CC1CS(=O)(=O)c2cc(CN)ccc21 (stereo partly drawn) [Example E31a, 4-(S)-((6-Aminomethyl-2,3-dihydro-1,1-dioxobenzothiophene-3-yl)acetyl-(S)-phenylalanyl-(S)-leucyl)amino-5-cyclohexyl-3-(S)-hydroxypentanoic acid isobutylamide dihydrate] |
